# Measured values from patent US10851089B2, “Matrix metalloproteinase (MMP) inhibitors and methods of use thereof” (Foresee Pharmaceuticals Co., Ltd., priority 2018, dated 2020).
# Columns and labels:
# recombinant human MMP-14 = recombinant human MMP-14 (Homo sapiens (Human), UniProt P50281); assay: MMP selectivity assay MMP-14; type: biochemical
# Protocol: The inhibitory effect of compounds on the rate of cleaving fluorogenic MMP substrate (Enzo, BML-P128) by recombinant human MMP-12 catalytic domain (Enzo, BML-SE138) was carried out by methods known in the art. Briefly, to each well of a 96-well black opaque plate, all the reagents were sequentially added by pipetting, and the final reaction contained 4 nM of recombinant human MMP-12 catalytic domain, 4 μM of fluorogenic MMP substrate, and various concentrations (0.15 nM to 10,000 nM) of tested compound dilutions in HEPES buffer (pH 7.5) containing 10 mM of CaCl2, 0.01% Brij® 35 (polyoxyethylene (23) lauryl ether), and 0.1 mg/ml of BSA.
# The enzyme and compounds were pre-incubated on a shaker to mix in wells. After an hour of mixing, fluorogenic substrate was added to each well. Reaction without enzyme was used as a blank control in the plate. The plate was then fed into a plate reader to measure fluorescence intensity at Excitation/Emission wavelengths of 340 nm/440 nm every 10 mins for at least 1 hour at 37° C. The IC50 of each compound in MMP-12 inhibition was determined by using a readout obtained at time point 30 minutes.
# The MMP selectivity assay was performed by using other recombinant human MMPs, including MMP-1, MMP-2, MMP-3, MMP-7, MMP-8, MMP-9, MMP-10, MMP-13, and MMP-14. The IC50 of the compounds for the other recombinant human MMPs was determined as described above in Example 1, and are shown in Table 2.
# [1] = test system: bleomycin-induced unilateral lung fibrosis; assay: Bleomycin-induced SD rat unilateral lung fibrosis model (IPF); type: in vivo; set-up: Left lung bronchial and arteriole damage score, fibrosis core / Left lung bronchial and arteriole damage score, fibrosis border: scale not given here; Fibrosis score 1-3 (ratio of left lung fibrosis score) / Fibrosis score 4-8 (ratio of left lung fibrosis score) / Left lung fibrosis area: unit not given here; conditions: for Left lung bronchial and arteriole damage score, fibrosis border / Left lung bronchial and arteriole damage score, fibrosis core: 14 days; for Left lung bronchial and arteriole damage score, fibrosis border: model 6.56 ± 0.51; for Left lung bronchial and arteriole damage score, fibrosis core: model 8.34 ± 0.24; for Left lung fibrosis score (Ashcraft): model 3.7 ± 0.1; for Fibrosis score 1-3 (ratio of left lung fibrosis score): model 44.0 ± 3.1; for Fibrosis score 4-8 (ratio of left lung fibrosis score): model 56.0 ± 3.1; for Left lung fibrosis area: model 69.1 ± 3.3
# Protocol: The purpose of this study was to evaluate the therapeutic effect of FC-4 on bleomycin (BLM) induced unilateral lung fibrosis model in Sprague Dawley (SD) rats. Male SD rats (n=50) were randomly divided into the following groups: Sham group (n=10), Model group (n=10), FC-4 administered at 10 mg/kg/day group (n=10), FC-4 administered at 30 mg/kg/day group (n=10), and FC-4 administered at 100 mg/kg/day group (n=10). All test drugs were delivered orally starting from day 8 of modeling for 14 days. Saline solution was taken for sham and model groups once a day, and FC-4 twice a day for drug treatment groups. Rats were anesthetized and the trachea was exposed. Saline was administrated via direct intra-trachea injection in the sham group, and the other groups' animals received a BLM injection at a dose of 3 mg/kg in volume of 1.0 ml/kg. All animals were processed using a non invasive lung function test with EMMS Whole Body Plethysmography system at pre-modeling, and at days 3, 7, 11, 14, 18 and 21 of modeling. One day after the last drug delivery, the left lung of all animals was perfused with 10% formalin, and processed for pathology analysis.
# Animals: Species and quality level: SD rats, SPF grade. Gender and number: male, 93. Purchasing body weight range: 260-280 g. Company Certificate No.: SCXX (Jing) 2012-001, Beijing Vital River Laboratory Animal Technology Co., Ltd. Animal Housing: Rats were housed in the Animal House Facility of the Nanjing BioSciKin Co. Ltd. under international standards for temperature, humidity and light control system. The animal use protocol was reviewed and approved by the Institutional Animal Care and Use Committee (IACUC) of KCI Biotech Inc. All experimental procedures were conducted in conformity with institutional guidelines of KCI Biotech Inc.
# Model Establishment: This study was carried out in strict accordance with the SOP institutional guidelines for the care and use of laboratory animals. Rats were anesthetized by intraperitoneal injection of pentobarbital sodium at dose of 50 mg/kg. Then rat neck skin was disinfected and opened in layers. The trachea was exposed carefully. Bleomycin (BLM) was directly injected into the left main bronchus at a dose of 3 mg/kg body weight in volume of 1.0 ml/kg via a cannula. After closing the trachea and skin in layers the animal was moved on an electric heat pad at 37° C. to await waking up from the anesthesia before returning to holding cages with free access to water and diet.
# Experiment Grouping: Rats were assigned into 5groups: Sham (Group-1, n=10), Model (Group-2, n=10), FC-4-Low dose (Group-3, 10 mg/kg/day, n=10), FC-4-Middle dose (Group-4, 30 mg/kg/day, n=10), FC-4-High dose (Group-5, 100 mg/kg/day, n=10) (Table 1).
# Drug Administration: Test article FC-4 were designed as an oral administration via a gastric perfusion. FC-4 was delivered twice a day starting from day-8 of modeling for 14 days. (Table 3.1).
# Endpoint: a) Non invasive lung function test: All animals were given a non-invasive lung function examination with EMMS Whole Body Plethysmography (WBP) system at multiple time points during the study periods, including at pre-IPF modeling, day-3 of IPF, day-7 of IPF before dosing, day-11 of IPF, day-14 of IPF, day-18 of IPF and day-21 of IPF before sacrificing the animals, focusing on the parameters of tidal volume (TV), breath rate, inspiratory volume per minute (MV) and Penh. index. b) Left lung collection for pathology analysis: After the last examination of lung function, all animals were euthanized according to the standard SOP at KCI. After confirming the animal death, each animal received a systemic perfusion with 10% formaldehyde solution, then the left lung was harvested and perfused again with an equal volume of 10% formaldehyde solution (3 ml for each lung). […]
smiles,measurement,setting,value
Cc1cc(COc2ccc(Sc3ccoc3C3NC(=O)NC3=O)cc2)ccn1 (stereo not drawn) [FC-4],IC50,recombinant human MMP-14,1 to 10 µM
same,"Left lung bronchial and arteriole damage score, fibrosis border",[1]; 10 mg/kg/d p.o. BID,4.2 ± 0.516
same,"Left lung bronchial and arteriole damage score, fibrosis core",[1]; 10 mg/kg/d p.o. BID,6.04 ± 0.19
same,Left lung fibrosis score (Ashcraft),[1]; 10 mg/kg/d p.o. BID,2.5 ± 0.2
same,Fibrosis score 1-3 (ratio of left lung fibrosis score),[1]; 10 mg/kg/d p.o. BID,82.0 ± 5.5
same,Fibrosis score 4-8 (ratio of left lung fibrosis score),[1]; 10 mg/kg/d p.o. BID,18.0 ± 5.5
same,Left lung fibrosis area,[1]; 10 mg/kg/d p.o. BID,75.1 ± 3.0
same,"Left lung bronchial and arteriole damage score, fibrosis border",[1]; 30 mg/kg/d p.o. BID,4.76 ± 0.16
same,"Left lung bronchial and arteriole damage score, fibrosis core",[1]; 30 mg/kg/d p.o. BID,6.18 ± 0.26
same,Left lung fibrosis score (Ashcraft),[1]; 30 mg/kg/d p.o. BID,2.6 ± 0.1
same,Fibrosis score 1-3 (ratio of left lung fibrosis score),[1]; 30 mg/kg/d p.o. BID,81.0 ± 4.8
same,Fibrosis score 4-8 (ratio of left lung fibrosis score),[1]; 30 mg/kg/d p.o. BID,19.0 ± 4.8
same,Left lung fibrosis area,[1]; 30 mg/kg/d p.o. BID,66.4 ± 2.9
same,"Left lung bronchial and arteriole damage score, fibrosis border",[1]; 100 mg/kg/d p.o. BID,4.18 ± 0.53
same,"Left lung bronchial and arteriole damage score, fibrosis core",[1]; 100 mg/kg/d p.o. BID,6.28 ± 0.21
same,Left lung fibrosis score (Ashcraft),[1]; 100 mg/kg/d p.o. BID,2.4 ± 0.2
same,Fibrosis score 1-3 (ratio of left lung fibrosis score),[1]; 100 mg/kg/d p.o. BID,84.0 ± 4.3
same,Fibrosis score 4-8 (ratio of left lung fibrosis score),[1]; 100 mg/kg/d p.o. BID,16.0 ± 4.3
same,Left lung fibrosis area,[1]; 100 mg/kg/d p.o. BID,70.5 ± 3.0
same,Body weight recovery,[1]; CPD treatment groups vs model group,no significant difference in body recovery
same,Share of Ashcraft score ≤ score 3,"[1]; all drug treatment groups, model over 60% ≥ score 4",~80%
same,MMP-12 expression in fibrosis core (IHC),[1]; clear dose dependent reduction (p>0.05 as printed),significant reduction
same,Collagen-I deposition in fibrosis core (IHC),"[1]; each dose, p<0.05",significant dosing dependent reduction
same,Collagen-IV deposition in fibrosis core (IHC),[1]; p<0.05,significant dose dependent reduction
same,Elastin expression in fibrosis core (IHC),[1]; p<0.05,significant reduction
same,TGF-β1 expression in fibrosis core (IHC),[1]; p<0.05,significant reduction
same,"Non invasive lung function (TV, MV, breath rate, Penh)","[1]; vs vehicle treated animals, all doses",did not show any significant changes
